Measurements taken from EP0214933A2, “Mixture preparations for the treatment of malaria” (CIBA-GEIGY AG, priority 1985, dated 1987).
Read-outs that look alike come from different tables or passages of the source.

What was measured:
[1] = tested on: Plasmodium falciparum T96 Zellinie A; assay: Growth inhibition of chloroquine-sensitive P. falciparum cultured in human erythrocytes; assay type: cell-based; conditions: for IC20 / IC50: Plasmodium falciparum, Erythrocyte; for IC50: over 2 cycles
From the text: (§1) • a) Durch konventionelles Züchten des Stammes Plasmodium falciparum T96 in einer 2 % (V/V) Suspension von humanen Erythrozyten wird der Grundorganismus-Zellinie A fortgepflanzt, welche eine normale Empfindlichkeit gegenüber Chloroquin aufweist. • b) Zellinie A des obigen Stammes wird unter analogen Standardbedingungen wie unter a) gezüchtet, jedoch mit Zusatz von immer ansteigenden Konzentrationen von Chloroquin, bis eine Chloroquinresistente Zellinie B resultiert, welche weiterhin in Kulturmedien mit einer 500 nM-Konzentration von Chloroquin andauernd normales Wachstum (dieselbe Wachstumsraten wie Zellinie A) aufweist.
(§2) • I. Die Züchtung von Testorganismen erfolgt unter den für Züchtung von Plasmodien üblichen Bedingungen auf einer 2 % Suspension von humanen Erythrozyten, supplementiert mit 50 mg/1 Hypoxanthin und gegebenenfalls unter Zugabe der getesteten Hemmsubstanz in gewünschter Konzentration. Die initiale Parasitämie (- der prozentuelle Anteil der zu Beginn von Plasmodien infizierten Erythrozyten) beträgt 1-2 %. Das Resultat (Hemmwirkung) wird als IC50 ausgewertet, d.h. jene Konzentration des Wirkstoffes, die eine Senkung der finalen Parasitämie um 50 %, d.h. eine 50%ige Hemmung des Wachstums, verursacht. • II. In einer alternativen Versuchsanordnung wird beim Einhalten aller übrigen Bedingungen ohne Zugabe von Hypoxanthin und mit einer initialen Parasitämie von 0,5 % gearbeitet.

[2] = tested on: Plasmodium falciparum T96 Chloroquinresistente Zellinie B; assay: Growth inhibition of chloroquine-resistant P. falciparum cultured in human erythrocytes; assay type: cell-based; conditions: for IC50: Plasmodium falciparum, Erythrocyte, over 2 cycles
From the text: as §1, §2

P. vinckei = conditions: cited from earlier work
[3] = tested on: Plasmodium falciparum in Kultur an menschlichen Erythrozyten; conditions: culture on human erythrocytes; cited from earlier work

CCN(CC)CCCC(C)Nc1ccnc2cc(Cl)ccc12 (stereo not drawn) [Chloroquin, 7-Chlor-4-(4-diethylamino-l-methylbutylamino)chinolin]
IC20 [1]: 0.01 µM | IC50 ([1]; Versuchsanordnung I (50 mg/l hypoxanthine, initial parasitaemia 1-2 %)): 0.05 µM | IC50 ([1]; Versuchsanordnung II (no hypoxanthine, initial parasitaemia 0,5 %)): 0.01 to 0.015 µM | IC50 ([2]; Versuchsanordnung I): ~0.8 µM | Vermehrungsfaktor ([2]; Versuchsanordnung I, with 500 nM chloroquine in the medium, same as Zellinie A without chloroquine (within 48 hours)): 7-9

CC(=O)N(O)CCCCCNC(=O)CCC(=O)N(O)CCCCCNC(=O)CCC(=O)N(O)CCCCCN [Desferrioxamin B (Mesylat)]
IC20 ([1]; Versuchsanordnung I, Hauptversuch II, read-out: IC20): 9 µM

CC(=O)N(O)CCCCCNC(=O)CCC(=O)N(O)CCCCCNC(=O)CCC(=O)N(O)CCCCCN [Desferrioxamin B, 6,17,28-Trihydroxy-7,10,18,21,29-pentaoxo-6,11,17,22,28-pentaaza-triacontanylamin]
IC50 ([1]; Versuchsanordnung I, read-out: IC50): 17 ± 3 µM | IC50 ([1]; Versuchsanordnung II, read-out: IC50): 5 ± 2 µM | IC50 ([2]; Versuchsanordnung I, without chloroquine in the test medium): 6 ± 1.5 µM | IC50 ([2]; Versuchsanordnung II, without chloroquine in the test medium): 2 ± 1 µM | Konzentration für dieselbe Wachstumshemmung in the presence of chloroquine ([2]; in the presence of a chloroquine concentration inactive by itself, compared with no chloroquine): halbiert sich noch weiter | Konzentration für dieselbe Wachstumshemmung, resistant strain compared with sensitive strain ([2]; without chloroquine, compared with normally sensitive strain under the same conditions): etwa dreimal niedrigeren Konzentration | Wachstum des Parasiten (P. vinckei; 0,2 g/kg): deutlich hemmt | Wachstum des Parasiten (P. vinckei; 1,0 g/kg): vollständig tötet | Wachstum (in vitro) [3]: nicht nur in ihrem Wachstum gehemmt, sondern auch getötet

COc1ncnc(NS(=O)(=O)c2ccc(N)cc2)c1OC [Sulfadoxine]
Wachstumshemmung (result in words) ([1]; Hauptversuch II with this substance in place of chloroquine, combined with Desferrioxamin B): Analoge Resulte
